In patent US20060094719A1, “Tetralin histamine-3 receptor antagonists” (Pfizer Inc, priority 2004, published 2006) one finds Ki and melting point data, which are given here for 34 compounds.

The target in data set [1] is T1, rat histamine H3 receptors (Rattus norvegicus, UniProt Q9QYN8).
T1 construct: Frozen rat frontal brain or frozen human post-mortem frontal brain is homogenized; from tissue; host or cells: rat frontal brain membranes
As to the kind of experiment: Rat H3 binding, 3H-N-methylhistamine displacement in frontal brain membranes. To be noted: radioligand 1 nM 3H-N-methylhistamine, 1-hour incubation. As for the experimental part:
The in vitro affinity of the compounds in the present invention at the rat or human histamine H3 receptors can be determined according to the following procedure. Frozen rat frontal brain or frozen human post-mortem frontal brain is homogenized in 20 volumes of cold 50 mM Tris.HCl containing 2 mM MgCl2 (pH to 7.4 at 4° C.). The homogenate is then centrifuged at 45,000 G for 10 minutes. The supernatant is decanted and the membrane pellet re-suspended by Polytron in cold 50 mM Tris.HCl containing 2 mM MgCl2 (pH to 7.4 at 4 degrees C.) and centrifuged again. The final pellet is re-suspended in 50 mM Tris HCl containing 2 mM MgCl2 (pH to 7.4 at 25 degrees C.) at a concentration of 12 mg/mL. Dilutions of compounds are made in 10% DMSO/50 mM Tris buffer (pH 7.4) (at 10×final concentration, so that the final DMSO concentration is 1%). Incubations are initiated by the addition of membranes (200 microliters) to 96-well V-bottom polypropylene plates containing 25 microliters of drug dilutions and 25 microliters of radioligand (1 nM final concentration ^3H-N-methylhistamine). After a 1-hour incubation, assay samples are rapidly filtered through Whatman GF/B filters and rinsed with ice-cold 50 mM Tris buffer (pH 7.4) using a Skatron cell harvester. Radioactivity is quantified using a BetaPlate scintillation counter.

T1 sequence (Q9QYN8 whole entry): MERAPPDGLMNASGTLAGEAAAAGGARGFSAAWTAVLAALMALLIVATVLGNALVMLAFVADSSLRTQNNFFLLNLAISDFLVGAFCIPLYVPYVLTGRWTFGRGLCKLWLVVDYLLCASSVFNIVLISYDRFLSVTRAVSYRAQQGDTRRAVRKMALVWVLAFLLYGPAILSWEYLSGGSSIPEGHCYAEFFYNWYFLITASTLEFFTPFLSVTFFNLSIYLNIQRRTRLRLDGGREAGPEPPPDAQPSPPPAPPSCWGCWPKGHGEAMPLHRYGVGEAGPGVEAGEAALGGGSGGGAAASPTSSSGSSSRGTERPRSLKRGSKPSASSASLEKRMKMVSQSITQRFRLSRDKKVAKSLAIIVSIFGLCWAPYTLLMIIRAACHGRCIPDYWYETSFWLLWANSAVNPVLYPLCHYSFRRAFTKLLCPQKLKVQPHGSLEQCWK

As a reminder, the Ki is the dissociation constant of the complex between target and ligand, obtained from inhibition or displacement. A word on the melting point: it is the temperature of the solid-liquid transition. `Cl.c1cc2c(cc1OCCCN1CCCC1)CCC(CN1CCCC1)C2` (racemic) [6 (±), (±)-1-[3-(6-Pyrrolidin-1-ylmethyl-5,6,7,8-tetrahydro-naphthalen-2-yloxy)-propyl]-pyrrolidine hydrochloride] had a melting point of 149.4 to 150.5 °C. The compound further showed a Ki in data set [1] of 9 nM. Take `Fc1ccc(C2CCCN2CCCOc2ccc3c(c2)CCC(CN2CCCC2)C3)cc1` (single isomer, unassigned; (+)) [71 (+), (+)-2-(4-Fluorophenyl)-1-[3-(6-pyrrolidin-1-ylmethyl-5,6,7-8-tetrahydro-naphthalen-2-yloxy)-propyl]-pyrrolidine]: the Ki in data set [1] stood at 9.6 nM. With `CC1CCCN(CCCOc2ccc3c(c2)CCC(CN2CCCC2)C3)C1` (single isomer, unassigned; (+)) [40 (+), (+)-3-Methyl-1-[3-(6-pyrrolidin-1-ylmethyl-5,6,7,8-tetrahydro-naphthalen-2-yloxy)-propyl]-piperidine], in data set [1], the Ki was 8.4 nM. On to `Fc1ccc(CNCCCOc2ccc3c(c2)CCC(CN2CCCC2)C3)cc1` (single isomer, unassigned; (-)) [32 (−), (−)-(4-Fluorobenzyl)-[3-(6-pyrrolidin-1-ylmethyl-5,6,7,8-tetrahydro-naphthalen-2-yloxy)-propyl]-amine], for which, in data set [1], the affinity corresponds to a Ki of 1.25 nM. This Ki lies about 6.7-fold lower than the previous one.

The compound `CC(CN1CCOCC1)NCCCOc1ccc2c(c1)CCC(CN1CCCC1)C2` (single isomer, unassigned; (-)) [51 (−), (−)-(1-Methyl-2-morpholin-4-ylethyl)-[3-(6-pyrrolidin-1-ylmethyl-5,6,7,8-tetrahydro-naphthalen-2-yloxy)-propyl]-amine] displayed an inhibition constant Ki in data set [1] of 6.2 nM. `Cl.c1cc2c(cc1OCCCN1CCOCC1)CCC(CN1CCCC1)C2` (stereo not shown) [14] had a melting point of 249.6 to 250.4 °C. For `Cl.c1cc2c(cc1OCCCN1CCC(N3CCCCC3)CC1)CCC(CN1CCCC1)C2` (racemic) [7 (±), (±)-1′-[3-(6-Pyrrolidin-1-ylmethyl-5,6,7,8-tetrahydro-naphthalen-2-yloxy)-propyl]-[1,4′]bi-piperidinyl hydrochloride], the melting point was 284.8 °C (dec.). This compound also had a Ki in data set [1] of 3 nM.

For the compound `CC1CC(C)CN(CCCOc2ccc3c(c2)CCC(CN2CCCC2)C3)C1` (single isomer, unassigned; (-)) [81 (−), (−)-3,5-Dimethyl-1-[3-(6-pyrrolidin-1-ylmethyl-5,6,7,8-tetrahydro-naphthalen-2-yloxy)-propyl]-piperidine], in data set [1], the Ki stood at 9.14 nM. This counts as single-digit nanomolar. In data set [1], `CC1CCN(CCCOc2ccc3c(c2)CCC(CN2CCCC2)C3)CC1` (single isomer, unassigned; (-)) [42 (−), (−)-4-Methyl-1-[3-(6-pyrrolidin-1-ylmethyl-5,6,7,8-tetrahydro-naphthalen-2-yloxy)-propyl]-piperidine] gave a Ki of 4.32 nM. On the same count and under the same terms, with `CC1CCCCN1CCCOc1ccc2c(c1)CCC(CN1CCCC1)C2` (single isomer, unassigned; (-)) [41 (−), (−)-2-Methyl-1-[3-(6-pyrrolidin-1-ylmethyl-5,6,7,8-tetrahydro-naphthalen-2-yloxy)-propyl]-piperidine] the figure was 5.89 nM.

`CC1CCCN(CCCOc2ccc3c(c2)CCC(CN2CCCC2)C3)C1` (single isomer, unassigned; (-)) [40 (−), (−)-3-Methyl-1-[3-(6-pyrrolidin-1-ylmethyl-5,6,7,8-tetrahydro-naphthalen-2-yloxy)-propyl]-piperidine]: in data set [1], the Ki was 3.54 nM. This Ki lies about 1.7-fold lower than the previous one.

The compound `Cl.c1cc2c(cc1OCCCNC1CC3CCC1C3)CCC(CN1CCCC1)C2` (stereo not shown) came in with a melting point of 265.4 to 266.3 °C. The compound `c1ccc(CNCCCOc2ccc3c(c2)CCC(CN2CCCC2)C3)cc1` (single isomer, unassigned; (-)) [28 (−), (−)-Benzyl-[3-(6-pyrrolidin-1-ylmethyl-5,6,7,8-tetrahydro-naphthalen-2-yloxy)-propyl]-amine] displayed a Ki in data set [1] of 4.7 nM. `NC(=O)C1CCCN(CCCOc2ccc3c(c2)CCC(CN2CCCC2)C3)C1` (racemic) [Example 9, (±)-1-[3-(6-Pyrrolidin-1-ylmethyl-5,6,7,8-tetrahydro-naphthalen-2-yloxy)-propyl]-piperidine-3-carboxylic acid amide] returned a melting point of 102 to 103.2 °C. Regarding `Cl.c1cc2c(cc1OCCCNC1CCC3(CCCCC3)CC1)CCC(CN1CCCC1)C2` (single isomer, unassigned; (-)) [16 (−), (−)-[3-(6-Pyrrolidin-1-ylmethyl-5,6,7,8-tetrahydro-naphthalen-2-yloxy)-propyl]-spiro[5.5]undec-3-ylamine hydrochloride], the melting point was in the range of 291.5 to 292.9 °C. In data set [1], this compound registered a Ki of 7.2 nM. `CC1(C)CCCN(CCCOc2ccc3c(c2)CCC(CN2CCCC2)C3)C1.Cl` (single isomer, unassigned; (-)) [15 (−), (−)-3,3-Dimethyl-1-[3-(6-pyrrolidin-1-ylmethyl-5,6,7,8-tetrahydro-naphthalen-2-yloxy)-propyl]-piperidine hydrochloride] returned a melting point of 202 to 204 °C. Moreover, the affinity in data set [1], expressed as Ki, was 5 nM.

`Cl.c1cc2c(cc1OCCCN1CCCCC1)CCC(CN1CCCC1)C2` (stereo not shown) [12] registered a melting point of 256.6 to 258.4 °C. The compound `c1cc2c(cc1OCCCNC1CCCCC1)CCC(CN1CCCC1)C2` (single isomer, unassigned; (-)) [64 (−), (−)-[3-(6-pyrrolidin-1-ylmethyl-5,6,7,8-tetrahydro-naphthalen-2-yloxy)-propyl]-cyclohexyl-amine] came in with a Ki in data set [1] of 4.36 nM. This lies in the single-digit nanomolar range. `Clc1ccc(CNCCCOc2ccc3c(c2)CCC(CN2CCCC2)C3)cc1` (single isomer, unassigned; (-)) [24 (−), (−)-(4-Chlorobenzyl)-[3-(6-pyrrolidin-1-ylmethyl-5,6,7,8-tetrahydro-naphthalen-2-yloxy)-propyl]-amine]: the Ki in data set [1] worked out at 0.84 nM. In turn, `Cl.c1cc2c(cc1OCCCN1CCOCC1)CCC(CN1CCCC1)C2` (stereo not shown) [11] had a melting point of 281.8 to 282.7 °C. Take `Clc1ccc(CNCCCOc2ccc3c(c2)CCC(CN2CCCC2)C3)c(Cl)c1` (single isomer, unassigned; (-)) [79 (−), (−)-(2,4-Dichlorobenzyl)-[3-(6-pyrrolidin-1-ylmethyl-5,6,7,8-tetrahydro-naphthalen-2-yloxy)-propyl]-amine]: affinity in data set [1] was put at a Ki of 1.9 nM. With `Cl.c1cc2c(cc1OCCCN1CCOCC1)CCC(CN1CCCC1)C2` (stereo not shown) [5], the melting point lay within 255.4 to 256.4 °C. `CN(CCCOc1ccc2c(c1)CCC(CN1CCCC1)C2)Cc1ccco1` (single isomer, unassigned; (-)) [55 (−), (−)-Furan-2-ylmethyl-[3-(6-pyrrolidin-1-ylmethyl-5,6,7,8-tetrahydro-naphthalen-2-yloxy)-propyl]-methylamine] gave a Ki in data set [1] of 4.5 nM.

The compound `Cl.c1cc2c(cc1OCCCN1CCOCC1)CCC(CN1CCCC1)C2` (racemic) [4] yielded a melting point of 259.9 to 261.4 °C. Consider `CN(C)CCCOc1ccc2c(c1)CCC(CN1CCCC1)C2.Cl` (racemic) [1], for which the melting point fell in the range of 187.7 to 188.7 °C. In turn, `Cl.NC(=O)C1CCN(CCCOc2ccc3c(c2)CCC(CN2CCCC2)C3)CC1` (racemic) came in with a melting point of 211 to 213 °C. `Fc1ccc(CNCCCOc2ccc3c(c2)CCC(CN2CCCC2)C3)cc1F` (single isomer, unassigned; (-)) [77 (−), (−)-(3,4-Difluorobenzyl)-[3-(6-pyrrolidin-1-ylmethyl-5,6,7,8-tetrahydro-naphthalen-2-yloxy)-propyl]-amine]: in data set [1], the Ki was 1.95 nM. This counts as single-digit nanomolar.

In turn, `Cl.Cl.c1cc2c(cc1OCCN1CCCCC1)CCC(CN1CCCC1)C2` (single isomer, unassigned; (-)) [92 (−), (−)-1-[2-(6-Pyrrolidin-1-ylmethyl-5,6,7,8-tetrahydro-naphthalen-2-yloxy)-ethyl]-piperidine dihydrochloride] registered a melting point of 265.5 to 266.8 °C. The affinity in data set [1], expressed as Ki, was 11.3 nM. For `c1cc2c(cc1OCCCN1CCCCC1)CCC(CN1CCCC1)C2` (racemic) [3 (±), (±)-1-[3-(6-Pyrrolidin-1-ylmethyl-5,6,7,8-tetrahydro-naphthalen-2-yloxy)-propyl]-piperidine], the melting point was 180 to 181.4 °C. The same compound yielded a Ki in data set [1] of 8.4 nM. In turn, `Clc1ccc(CNCCCOc2ccc3c(c2)CCC(CN2CCCC2)C3)cc1Cl` (single isomer, unassigned; (-)) [27 (−), (−)-(3,4-Dichlorobenzyl)-[3-(6-pyrrolidin-1-ylmethyl-5,6,7,8-tetrahydro-naphthalen-2-yloxy)-propyl]-amine] showed a Ki in data set [1] of 1.58 nM. That is a single-digit nanomolar value. `CN(C)CCCOc1ccc2c(c1)CCC(CN1CCCC1)C2.Cl` (stereo not shown) [13]: the melting point lay in the range of 230.6 to 232.8 °C. On the same count and under the same terms, with `Cl.c1cc2c(cc1OCCCN1CCC3(CCCCC3)CC1)CCC(CN1CCCC1)C2` (stereo not shown) the figure was 287.6 to 290.2 °C. For `c1cc2c(cc1OCCCN1CC3CCCC1C3)CCC(CN1CCCC1)C2` (single isomer, unassigned; (-)) [65 (−), (−)-6-[3-(6-Pyrrolidin-1-ylmethyl-5,6,7,8-tetrahydro-naphthalen-2-yloxy)-propyl]-6-azabicyclo-[3.2.1]octane], the Ki in data set [1] amounted to 2.11 nM. `CN(C)CCOc1ccc2c(c1)CCC(CN1CCCC1)C2.Cl` (racemic) yielded a melting point of 131.6 to 132.8 °C.
